Patent US8865750B2, “Small molecule inhibitors of RGS proteins” (The Regents of The University of Michigan, priority 2011, dated 2014)
pIC50: −log10 of the molar value. Read-outs that look alike come from different tables or passages of the source.

What was measured:
HEK293 cells = test: Calcium mobilization induced by compound alone; assay type: cell-based; conditions: Homo sapiens, HEK293; read-out: Calcium transient (% 50014);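 further: percent of response to 10 µM reference CCG-50014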
Experimental: Calcium Mobilization Experiments:
A stable cell line was developed based upon the HEK-293 Flp-In TREx cell line (Invitrogen, Carlsbad, Calif.) that stably express the muscarinic M3 receptor and have human RGS4 expression under doxycycline control. Cells were maintained in DMEM supplemented with 10% fetal bovine serum and Penicillin (100 units/ml)-Streptomycin (100 μg/ml) under 5% CO2 at 37° C. For experiments, cells were split into 96-well black, clear bottom, poly-D-lysine coated microtiter plates (Nunc, Cat. #152037) at a density of 20,000 cells/well in DMEM containing 10% fetal bovine serum and Penicillin (100 units/ml), Streptomycin (100 μg/ml). RGS4 expression was induced by supplementing the medium with 1 μg/mL doxycycline for 24-48 hours before experimentation. Cells were loaded with Fluo-4 No Wash dye in buffer for 30 minutes at 37° C. Compounds and/or carbachol were added to the wells and the fluorescence intensity was measured using a FlexStation (Molecular Devices, Sunnyvale, Calif.) plate reader. Data analysis was performed by calculating the area under the curve or maximal fluorescence intensity from a 120 second kinetic measurement.

RGS8 = RGS8 (Homo sapiens (Human), UniProt P57771); test: FCPIA: Gαo binding to RGS8; conditions: for RGS8 Hill Slope: Table 3; for pIC50: read-out: RGS8 IC50
Chain of RGS8 (P57771 other isoform, or with tags, fused parts or gaps): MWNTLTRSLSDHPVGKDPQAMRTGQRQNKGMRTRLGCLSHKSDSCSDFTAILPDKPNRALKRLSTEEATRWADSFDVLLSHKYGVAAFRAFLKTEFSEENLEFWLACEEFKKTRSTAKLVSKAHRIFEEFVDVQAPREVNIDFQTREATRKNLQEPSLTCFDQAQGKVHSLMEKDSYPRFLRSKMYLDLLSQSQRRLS
Excerpt: (§1) FCPIA Dose Response and Reversibility Experiments:

RGS4 = test: FCPIA: Gαo binding to RGS4; conditions: for RGS4 Hill Slope: Table 3; for pIC50: Table 3, duplex FCPIA, average of two experiments, read-out: RGS4 IC50
Excerpt: as §1

[1] = Table 3, duplex FCPIA, average of two experiments

| SMILES | Emax at 10 µM (HEK293 cells) [%] | RGS8 Hill Slope (RGS8) | pIC50 (RGS8; Table 6, FCPIA) | RGS4 Hill Slope (RGS4) | pIC50 (RGS4) | pIC50 (RGS8; [1]) |
| --- | --- | --- | --- | --- | --- | --- |
| O=c1sn(-c2cccc(Cl)c2)c(=O)n1Cc1ccccc1 [CCG-203773, 2-(3-chlorophenyl)-4-benzyl-1,2,4-thiadiazolidine-3,5-dione] | 199 | −0.87 | 4.96 | −1.25 | 7.48 | – |
| O=c1sn(-c2cccc(C(F)(F)F)c2)c(=O)n1Cc1ccc(F)cc1 [CCG-203775, 2-(3-trifluoromethylphenyl)-4-(4-fluorobenzyl)-1,2,4-thiadiazolidine-3,5-dione] | 170 | −1.14 | – | −0.88 | 7.10 | 4.79 |
| O=c1sn(-c2cccc(Cl)c2)c(=O)n1Cc1ccc(F)cc1 [CCG-203776, 2-(3-chlorophenyl)-4-(4-fluorobenzyl)-1,2,4-thiadiazolidine-3,5-dione] | 223 | −1.07 | – | −1.08 | 7.28 | 4.89 |
| Cc1ccc(-n2sc(=O)n(Cc3cccc(Cl)c3)c2=O)cc1 [CCG-203777, 2-p-tolyl-4-(3-chlorobenzyl)-1,2,4-thiadiazolidine-3,5-dione] | 179 | −1.00 | – | −0.96 | 7.77 | 4.76 |
| Cc1cccc(-n2sc(=O)n(Cc3ccc(F)cc3)c2=O)c1 [CCG-203788, 2-(3-methylphenyl)-4-(4-fluorobenzyl)-1,2,4-thiadiazolidine-3,5-dione] | 134 | −1.09 | – | −1.91 | 6.92 | 5.15 |
| CN(C)c1ccc(-n2sc(=O)n(Cc3ccc(F)cc3)c2=O)cc1 [S2, 2-(4-dimethylaminophenyl)-4-(4-fluorobenzyl)-1,2,4-thiadiazolidine-3,5-dione] | 111 | −1.28 | 4.99 | −1.65 | – | 4.99 |
| CC(C)(C)c1ccc(-n2sc(=O)n(Cc3ccccc3)c2=O)cc1 [S3, 2-(4-t-butylphenyl)-4-benzyl-1,2,4-thiadiazolidine-3,5-dione] | 123 | −0.78 | 4.76 | −1.79 | – | 4.76 |
| O=c1sn(-c2ccc(Cl)cc2)c(=O)n1Cc1ccc(Cl)cc1 [S5, 2-(4-chlorophenyl)-4-(4-chlorobenzyl)-1,2,4-thiadiazolidine-3,5-dione] | 141 | −1.36 | 4.90 | −1.48 | – | 4.90 |
| COc1ccc(-n2sc(=O)n(Cc3ccc(Cl)cc3)c2=O)cc1 [S6, 2-(4-methoxyphenyl)-4-(4-chlorobenzyl)-1,2,4-thiadiazolidine-3,5-dione] | 104 | −0.91 | 4.40 | −1.73 | – | 4.40 |
| Cc1ccc(Cn2sc(=O)n(Cc3ccc(Cl)cc3)c2=O)cc1 [S8, 2-(4-methylbenzyl)-4-(4-chlorobenzyl)-1,2,4-thiadiazolidine-3,5-dione] | 11.4 | −0.60 | 3.47 | −1.23 | – | 3.47 |
| Cc1ccc(Cn2c(=O)sn(-c3ccccc3)c2=O)cc1 [S9, 2-phenyl-4-(4-methylbenzyl)-1,2,4-thiadiazolidine-3,5-dione] | 12.2 | −0.87 | 5.08 | −1.50 | – | 5.08 |
| Cc1ccc(Cn2c(=O)sn(-c3ccc(Cl)cc3)c2=O)cc1 [S10, 2-(4-chlorophenyl)-4-(4-methylbenzyl)-1,2,4-thiadiazolidine-3,5-dione] | 20 | −1.17 | 4.89 | −1.59 | – | 4.89 |
| Cc1ccc(Cn2sc(=O)n(Cc3ccc(C)cc3)c2=O)cc1 [S13, 2,4-bis(4-methylbenzyl)-1,2,4-thiadiazolidine-3,5-dione] | 251 | −0.51 | 4.02 | −0.92 | – | 4.02 |
| O=c1sn(-c2ccccc2)c(=O)n1Cc1cccc(Cl)c1 [S14, 2-phenyl-4-(3-chlorobenzyl)-1,2,4-thiadiazolidine-3,5-dione] | 57.7 | −1.47 | 5.03 | −1.41 | – | 5.03 |
| Cc1cccc(-n2sc(=O)n(Cc3cccc(Cl)c3)c2=O)c1 [S16, 2-m-tolyl-4-(3-chlorobenzyl)-1,2,4-thiadiazolidine-3,5-dione] | 142 | −0.95 | 5.00 | −1.52 | – | 5.00 |
| O=c1sn(-c2cccc(Cl)c2)c(=O)n1Cc1cccc(Cl)c1 [S17, 2-(3-chlorophenyl)-4-(3-chlorobenzyl)-1,2,4-thiadiazolidine-3,5-dione] | 67.8 | −1.66 | 4.68 | −1.55 | – | 4.68 |
| Cc1cccc(Cn2c(=O)sn(-c3ccccc3)c2=O)c1 [S19, 2-phenyl-4-(3-methylbenzyl)-1,2,4-thiadiazolidine-3,5-dione] | 243 | −1.17 | 5.08 | −1.65 | – | 5.08 |
| Cc1cccc(Cn2c(=O)sn(-c3cccc(C)c3)c2=O)c1 [S21, 2-m-tolyl-4-(3-methylbenzyl)-1,2,4-thiadiazolidine-3,5-dione] | 63.3 | −0.82 | 4.98 | −1.79 | – | 4.98 |
| COc1ccc(Cn2c(=O)sn(-c3ccccc3)c2=O)cc1 [S24, 2-phenyl-4-(4-methoxybenzyl)-1,2,4-thiadiazolidine-3,5-dione] | 18.6 | −0.77 | 5.14 | −1.78 | – | 5.14 |
| COc1ccc(Cn2c(=O)sn(-c3ccc(Cl)cc3)c2=O)cc1 [S25, 2-(4-chlorophenyl)-4-(4-methoxybenzyl)-1,2,4-thiadiazolidine-3,5-dione] | 84.6 | −0.73 | 5.00 | −3.26 | – | 5.00 |
| COc1ccc(Cn2c(=O)sn(-c3ccc(OC)cc3)c2=O)cc1 [S26, 2-(4-methoxyphenyl)-4-(4-methoxybenzyl)-1,2,4-thiadiazolidine-3,5-dione] | 54.9 | −0.81 | 4.75 | −1.27 | – | 4.75 |
| COc1ccc(Cn2c(=O)sn(-c3ccc(Cl)c(Cl)c3)c2=O)cc1 [S27, 2-(3,4-dichlorophenyl)-4-(4-methoxybenzyl)-1,2,4-thiadiazolidine-3,5-dione] | 63.4 | −1.50 | 4.44 | −1.04 | – | 4.44 |
| COc1ccc(Cn2c(=O)sn(Cc3ccc(C)cc3)c2=O)cc1 [S28, 2-(4-methylbenzyl)-4-(4-methoxybenzyl)-1,2,4-thiadiazolidine-3,5-dione] | 169 | −0.64 | 4.03 | −2.42 | – | 4.03 |
| O=c1sn(-c2ccccc2)c(=O)n1Cc1ccc(Cl)c(Cl)c1 [S29, 2-phenyl-4-(3,4-dichlorobenzyl)-1,2,4-thiadiazolidine-3,5-dione] | 47.6 | −0.80 | 5.12 | −0.96 | – | 5.12 |
